Paper PMC9501899 (Journal of the American Chemical Society, 2022)
Where two headings read alike, the source gives them in different places.

Legend:
WT LRRK2 = biological target: T1, WT LRRK2 (Mus musculus, UniProt Q5S006); assay: LRRK2 degradation in WT MEFs by Western blotting; format: cell-based
T1 construct: endogenous in cells; host or cells: wild-type primary MEFs
Protocol: (§1) These PROTACs were then biologically evaluated in mouse embryonic fibroblasts (MEFs) by Western blotting. Briefly, MEFs were treated with compounds at 33 nM and 1 μM for 4 h (Figure 2) and 24 h (Figure S2) separately, and the intracellular level of LRRK2, phosphorylated LRRK2 at Ser935, and phosphorylated Rab10 (pRab10) at Thr73 was determined. Rab10[5],[49] is one of the bona fide substrates of LRRK2, whose phosphorylation status is directly affected by the LRRK2 kinase activity and protein level. Phosphorylation of LRRK2 at Ser935 is a well-studied biomarker site used to assess the efficacy of type 1 LRRK2 inhibitors.[30]
(§2) Primary MEFs were generated as described in a previous study.[80] Briefly, the uterine horn was collected from adult female mice at day E12.5 and transferred to a 10 cm tissue culture dish containing cold PBS. Two forceps were used to tear the yolk sacs to isolate each embryo. Forceps were cleaned thoroughly with 70% ethanol between each embryo isolation. The embryos were culled, and a tissue piece was collected in a polymerase chain reaction (PCR) tube for genotyping. The red tissue of the embryo was removed, and the remainder was minced with a scalpel blade and incubated with a 7.5 mL trypsin–ethylenediaminetetraacetic acid (EDTA) solution for 10 min in a 37 °C, 5% CO2 tissue culture incubator. The dish was removed from the incubator and checked under a light microscope for single cells. Complete media (7.5 mL) was added to the trypsinized cells, and the cell suspension was transferred to a 15 mL Falcon tube and centrifuged at 1200 rpm for 5 min at room temperature. The trypsin was aspirated, the cell pellet was resuspended in a 5 mL fresh complete media, and the cell suspension was plated in a 60 mm tissue culture dish and incubated in a 37 °C, 5% CO2 tissue culture incubator. The MEFs at this stage were considered as passage 0 and were passaged and expanded for experimental use once the genotype was confirmed by allelic sequencing and immunoblotting. MEFs were cultured in Dulbecco’s modified Eagle’s medium (DMEM) containing 10% (v/v) fetal bovine serum (FBS), 2 mM L-glutamine, 100 U/mL penicillin, and 100 μg/mL streptomycin supplemented with 1× nonessential amino acids and 1 mM sodium pyruvate.
(§3) Culturing and passaging of adherent cell lines were carried out using an aseptic technique in CL1 or CL2 (for PBMC isolation) biological safety cabinets. All cells were incubated in a 37 °C incubator with 5% CO2. Cell lines were regularly tested for mycoplasma contamination. For Western blot assay, the cells were seeded in six-well plates. For immunoprecipitation of LRRK2, SH-SY5Y cells (cultured in DMEM-F12, supplemented with 15% (v/v) FBS, 100 U/mL penicillin and 100 μg/mL streptomycin, 1× nonessential amino acids, and 1 mM sodium pyruvate) were seeded in a 10 cm dish. All cells were treated with the indicated compounds such that the final concentration of DMSO was 0.1%. Following the treatment of cells with compounds at indicated concentrations and time periods, the media was removed and the cells were washed with PBS and lysed in a 100 μL ice-cold complete lysis buffer containing 50 mM tris–HCl pH 7.4, 1 mM EGTA, 10 mM 2-glycerophosphate, 50 mM sodium fluoride, 5 mM sodium pyrophosphate, 270 mM sucrose, supplemented with 1 μg/mL microcystin-LR, 1 mM sodium orthovanadate, complete EDTA-free protease inhibitor cocktail (Roche), and 1% (v/v) Triton X-100. The cells were immediately placed on ice and were scraped and collected into 1.5 mL Eppendorf tubes. Cell lysates were incubated on ice for 10 min prior to centrifugation at 15 000g at 4 °C for 15 min.

[1] = biological target: T2, LRRK2-NanoLuc with VCB protein (Homo sapiens, UniProt P40337+Q5S007); assay: NanoBRET-based ternary binding and cooperativity assay; conditions: for cooperativity (α): IC50 ratio without/with VCB; for IC50: compound preincubated with VCB, lysate of HEK293 cells, LRRK2 tracer
T2 construct: host or cells: HEK293 (digitonin-permeabilized), recombinant VCB added
Protocol: (A). Schematic illustration of the binary and ternary LRRK2 engagement assays. […] The fractional occupancy of the tracer is plotted against the concentrations of the compounds and fitted into the “nonlinear regression, one site-log IC50” model in GraphPad to obtain the IC50 values. The IC50 ratio between the blue curve and red cure is calculated as cooperativity (α). […] The NanoBRET signal was plotted against the compounds’ concentrations and fitted into “nonlinear regression, Gaussian” model in GraphPad. Error bars are mean ± SEM from three biological independent experiments.
Titration of PROTACs to the lysed cells and LRRK2 tracer in the presence or absence of recombinant VCB protein (VHL complexed with elongin B–elongin C) gives ternary and binary binding affinities of PROTACs for LRRK2, respectively. Similarly, the ternary complex formation assay also used LRRK2-NanoLuc transiently expressed in HEK293 as the BRET donor, but the acceptor was recombinant VCB protein labeled with BODIPY^576/589via the NHS ester-activated cross-linking reaction. PROTACs that can bridge LRRK2 and VCB together will produce a BRET signal (Figure 10E).
The HEK293 cells were transfected with the LRRK2-NanoLuc fusion vector (Promega, NV3401) following Promega’s protocol and seeded into a white 384-well plate (Corning3570) at a density of 6000 cells/well. The cells were then treated with 50 μg/mL of digitonin, 125 nM of LRRK2 tracer, testing compounds at decreasing concentrations (11 concentrations with a 2-fold serial dilution starting from 10 μM) or testing compounds and VCB mix (11 concentrations with a 2-fold serial dilution starting from 10 μM compound). The first six concentrations of VCB start from 32 μM with a 2-fold dilution, while the last five concentrations of VCB were kept fixed at 1 μM. The NanoBRET NanoGlo Substrate (Promega, N157C) was added at concentrations recommended by the manufacturer’s protocol. In the maximum signal control samples (DMSO control), DMSO was added instead of testing compounds. In the minimum signal control samples (no tracer control), DMSO and LRRK2 tracer dilution buffer were used to replace testing compounds and LRRK2 tracer separately. The filtered luminescence was measured within 10 min following the addition of the substrate on a PHERAstar (BMG LABTECH) plate reader equipped with a 450 nm bandpass filter (donor) and a 600 nm long-pass filter (acceptor). The fractional occupancy was calculated according to the equation: fractional occupancy = (mBRETtesting compound – mBRETno tracer control)/(mBRETDMSO control – mBRETno tracer control).

Rab10-pThr73 = assay: Rab10 dephosphorylation in WT MEFs by Western blotting; format: cell-based, mouse
Protocol: as §1, §2, §3

T2 sequence (Q5S007 whole entry): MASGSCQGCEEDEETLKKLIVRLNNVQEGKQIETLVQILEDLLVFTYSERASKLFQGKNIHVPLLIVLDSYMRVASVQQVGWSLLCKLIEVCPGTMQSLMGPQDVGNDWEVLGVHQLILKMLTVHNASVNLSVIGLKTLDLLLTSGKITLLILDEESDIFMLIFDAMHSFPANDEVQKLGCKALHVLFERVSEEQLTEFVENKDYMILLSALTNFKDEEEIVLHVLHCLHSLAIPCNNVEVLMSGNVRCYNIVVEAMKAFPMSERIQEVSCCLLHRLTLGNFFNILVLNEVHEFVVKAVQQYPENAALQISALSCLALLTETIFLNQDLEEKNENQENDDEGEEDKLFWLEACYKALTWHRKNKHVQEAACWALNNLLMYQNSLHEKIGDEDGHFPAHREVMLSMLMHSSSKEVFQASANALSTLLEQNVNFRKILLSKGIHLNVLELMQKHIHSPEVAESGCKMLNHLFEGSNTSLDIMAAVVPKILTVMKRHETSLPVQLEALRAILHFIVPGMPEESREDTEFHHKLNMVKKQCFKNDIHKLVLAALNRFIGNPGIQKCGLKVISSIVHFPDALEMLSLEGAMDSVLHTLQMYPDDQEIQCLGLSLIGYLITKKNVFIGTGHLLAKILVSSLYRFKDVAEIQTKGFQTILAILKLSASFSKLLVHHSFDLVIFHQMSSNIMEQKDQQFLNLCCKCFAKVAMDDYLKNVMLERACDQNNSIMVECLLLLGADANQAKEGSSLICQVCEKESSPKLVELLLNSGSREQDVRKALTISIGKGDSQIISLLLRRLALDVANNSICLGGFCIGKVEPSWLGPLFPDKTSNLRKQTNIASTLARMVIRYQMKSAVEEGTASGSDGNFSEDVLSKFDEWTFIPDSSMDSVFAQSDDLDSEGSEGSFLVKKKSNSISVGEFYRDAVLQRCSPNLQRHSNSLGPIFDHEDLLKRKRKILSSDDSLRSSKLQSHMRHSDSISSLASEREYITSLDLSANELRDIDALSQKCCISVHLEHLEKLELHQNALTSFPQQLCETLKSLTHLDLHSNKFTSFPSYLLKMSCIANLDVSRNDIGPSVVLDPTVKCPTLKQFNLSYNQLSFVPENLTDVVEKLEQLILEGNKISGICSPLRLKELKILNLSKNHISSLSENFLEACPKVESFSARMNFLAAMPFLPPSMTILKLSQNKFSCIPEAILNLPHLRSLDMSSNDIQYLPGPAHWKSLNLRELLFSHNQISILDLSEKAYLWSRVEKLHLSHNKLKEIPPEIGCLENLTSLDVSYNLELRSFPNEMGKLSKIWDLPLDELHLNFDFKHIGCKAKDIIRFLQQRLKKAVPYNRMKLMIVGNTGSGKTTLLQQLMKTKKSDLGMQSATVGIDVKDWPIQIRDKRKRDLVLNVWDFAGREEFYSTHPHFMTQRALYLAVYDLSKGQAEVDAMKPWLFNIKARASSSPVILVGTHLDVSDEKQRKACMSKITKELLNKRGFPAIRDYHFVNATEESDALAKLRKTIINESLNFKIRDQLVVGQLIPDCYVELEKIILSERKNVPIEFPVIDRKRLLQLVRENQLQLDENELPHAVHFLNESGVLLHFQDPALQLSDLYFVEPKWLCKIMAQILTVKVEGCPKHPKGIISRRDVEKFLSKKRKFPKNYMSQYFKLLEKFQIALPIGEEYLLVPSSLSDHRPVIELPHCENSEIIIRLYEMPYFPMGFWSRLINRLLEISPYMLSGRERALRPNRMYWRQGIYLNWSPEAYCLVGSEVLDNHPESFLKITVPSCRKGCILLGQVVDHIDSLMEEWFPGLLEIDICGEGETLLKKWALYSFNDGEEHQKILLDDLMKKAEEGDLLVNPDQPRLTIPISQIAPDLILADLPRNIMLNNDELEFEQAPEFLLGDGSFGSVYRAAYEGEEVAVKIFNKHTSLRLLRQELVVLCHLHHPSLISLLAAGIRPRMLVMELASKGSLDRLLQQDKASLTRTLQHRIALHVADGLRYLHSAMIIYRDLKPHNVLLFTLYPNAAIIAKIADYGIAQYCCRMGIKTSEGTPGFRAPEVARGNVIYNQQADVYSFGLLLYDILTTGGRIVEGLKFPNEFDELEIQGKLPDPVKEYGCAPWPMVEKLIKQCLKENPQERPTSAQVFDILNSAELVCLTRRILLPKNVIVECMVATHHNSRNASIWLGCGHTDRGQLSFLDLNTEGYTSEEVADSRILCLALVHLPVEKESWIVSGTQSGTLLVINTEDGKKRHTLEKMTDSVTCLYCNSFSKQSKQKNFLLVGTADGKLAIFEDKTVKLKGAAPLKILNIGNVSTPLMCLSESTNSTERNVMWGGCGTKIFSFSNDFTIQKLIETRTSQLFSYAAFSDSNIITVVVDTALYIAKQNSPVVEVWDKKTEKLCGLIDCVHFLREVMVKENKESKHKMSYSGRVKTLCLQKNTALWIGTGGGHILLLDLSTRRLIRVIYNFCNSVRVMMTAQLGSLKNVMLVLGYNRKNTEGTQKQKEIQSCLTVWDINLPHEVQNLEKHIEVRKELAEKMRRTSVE
T2 sequence (P40337 54-213 limits assumed): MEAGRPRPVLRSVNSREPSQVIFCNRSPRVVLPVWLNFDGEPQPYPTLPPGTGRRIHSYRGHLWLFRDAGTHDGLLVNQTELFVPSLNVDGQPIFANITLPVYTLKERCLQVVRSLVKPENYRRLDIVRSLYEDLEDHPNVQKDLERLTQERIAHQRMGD
T2 sequence (Q15370 1-104 partner limits assumed): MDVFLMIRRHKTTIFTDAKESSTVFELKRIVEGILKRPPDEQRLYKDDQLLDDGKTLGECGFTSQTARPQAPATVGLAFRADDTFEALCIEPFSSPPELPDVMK
T2 sequence (Q15369 17-112 partner limits assumed): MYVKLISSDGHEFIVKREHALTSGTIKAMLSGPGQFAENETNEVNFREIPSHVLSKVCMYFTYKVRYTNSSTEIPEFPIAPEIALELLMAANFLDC

Structure (SMILES)	degradation of WT LRRK2 (in words) (WT LRRK2; 4 h)	cooperativity (α) [1]	IC50 [1]	WT-pRab10 percent label at the end of the time curve (Rab10-pThr73; 0.3 µM)	EC50 (Rab10-pThr73; Mus musculus, 4 h, WT MEFs, read-out: EC50 WT-pRab10)	DC50 (WT LRRK2; 4 h)	IC50 (Rab10-pThr73; Mus musculus, 4 h, WT MEFs, read-out: WT-pRab10 IC50)	Dmax at 0.3 µM (WT LRRK2; 300 nM, read-out: Dmax,WT, time-dependent degradation)	WT-pRab10 percent label at the end of the time curve (Rab10-pThr73; 1 µM)	EC50 (Rab10-pThr73; Mus musculus, 24 h, WT MEFs, read-out: EC50 for the dephosphorylation of Rab10 (WT-pRab10))	Dmax at 1 µM (WT LRRK2; 1 μM (1000 nM), read-out: Dmax (WT LRRK2), time-dependent degradation)	Dmax (WT LRRK2; dose-dependent degradation, 24 h)
CNc1nc(Nc2ccc(C(=O)N3CCN(C[C@H]4CC[C@H](CSC(C)(C)[C@H](NC(=O)C5(F)CC5)C(=O)N5C[C@@H](O)C[C@H]5C(=O)NCc5ccc(-c6scnc6C)cc5)CC4)CC3)cc2OC)ncc1Cl [cis-XL01126, (2S,4S)-1-((R)-3-((((1R,4R)-4-((4-(4-((5-Chloro-4-(methylamino)pyrimidin-2-yl)amino)-3-methoxybenzoyl)piperazin-1-yl)methyl)cyclohexyl)methyl)thio)-2-(1-fluorocyclopropane-1-carboxamido)-3-methylbutanoyl)-4-hydroxy-N-(4-(4-methylthiazol-5-yl)benzyl)pyrrolidine-2-carboxamide]	no degradation											
CNc1nc(Nc2ccc(C(=O)N3CCN(C[C@H]4CC[C@H](CSC(C)(C)[C@H](NC(=O)C5(F)CC5)C(=O)N5C[C@H](O)CC5C(=O)NCc5ccc(-c6scnc6C)cc5)CC4)CC3)cc2OC)ncc1Cl (stereo partly drawn) [XL01126, (2S,4R)-1-((R)-3-((((1R,4R)-4-((4-(4-((5-Chloro-4-(methylamino)pyrimidin-2-yl)amino)-3-methoxybenzoyl)piperazin-1-yl)methyl)cyclohexyl)methyl)thio)-2-(1-fluorocyclopropane-1-carboxamido)-3-methylbutanoyl)-4-hydroxy-N-(4-(4-methylthiazol-5-yl)benzyl)pyrrolidine-2-carboxamide]		5.7	350 nM	94%	54 nM	32 nM						
CNc1nc(Nc2ccc(C(=O)N3CCN(C[C@H]4CC[C@@H](CSC(C)(C)[C@H](NC(=O)C5(F)CC5)C(=O)N5C[C@H](O)CC5C(=O)NCc5ccc(-c6scnc6C)cc5)CC4)CC3)cc2OC)ncc1Cl (some centres unmarked) [XL01134]		1.4	790 nM	88%		32 nM	74 nM	75%				
CNc1nc(Nc2ccc(C(=O)N3CCN(CCOCCOCCSC(C)(C)[C@H](NC(=O)C4(F)CC4)C(=O)N4C[C@H](O)C[C@H]4C(=O)NCc4ccc(-c5scnc5C)cc4)CC3)cc2OC)ncc1Cl [SD75]			1400 nM						41%	2270 nM	52%	51%
